Experimental data as given in patent US5873359A, “Methods and devices for treating pulmonary vasoconstriction and asthma” (The General Hospital Corporation, priority 1994, dated 1999).

Key:
[1] = system: pulmonary hypertension in ARDS; assay: Inhaled NO versus i.v. prostacyclin in adult with ARDS (first subject); assay type: in vivo, human
Procedure: First subject. The patient had suffered for three weeks from adult respiratory distress syndrome (ARDS) due to aspiration pneumonia. There was diffuse pulmonary edema and a large QVA /QT (30%). After 21 days of venovenous extracorporeal membrane oxygenator support (3 liters/min blood flow), the mean PAP was 55 mm Hg.
The short term effects of inhaled nitric oxide were compared with those of i.v. prostacyclin (PGI2; 5ng/kg/min). Mean pulmonary arterial pressure (PAP), right ventricular ejection fraction (RVEF) and gas exchange variables were evaluated. RVEF was assessed by thermodilution, and gas exchange alterations were analyzed using the multiple inert gas elimination technique (MIGET). MIGET and RVEF date were obtained on two different occasions. Ventilator settings were tidal volume 6 ml/kg, respiratory rate 14/min, Fi O2 0.4-0.48 and 5 cm H2 O of PEEP (positive end expiratory pressure).

airway resistance = assay: Methacholine infusion alone (stability of bronchoconstrictor model); assay type: in vivo, Hartley strain guinea pigs; conditions: methacholine infusion (FIG. 13)
Procedure: (§1) Male Hartley strain guinea pigs (300-440g body wt) were anesthetized with α-chloralose (50 mg/kg) and urethane (500 mg/kg) (Drazen et al., J. Appl. Physiol. 48:613-618, 1980). A tracheostomy was performed, and the animals were intubated with a tubing adaptor (ID 1.65 mm) and ventilated with a small animal ventilator (Harvard Apparatus, a division of Ealing Scientific, Natick, Mass.) at 8 ml/kg and 60 breaths/min. A jugular vein was cannulated for intravenous administration of drugs. The chest was opened by bilateral excision of a portion of the ribs anteriorly so that the lungs were exposed to atmospheric pressure (Shore and Drazen, J. Appl. Physiol. 67:2504-2511, 1989). A positive end expiratory pressure of 3-4 cmH2 O was provided.
(§2) Guinea pigs were then placed inside a plethysmograph (Amdur and Mead, Am. J. Physiol. 192:363-368, 1958), that was connected to a large reservoir containing copper mesh to maintain the plethysmograph isothermal. Plethysmograph pressure was measured with a differential pressure transducer (Celesco, Canoga Park, Calif.); the opposite side of this transducer was connected to a similar reservoir. Pressure at the airway opening was measured from a side tap in the tracheal canula. Transpulmonary pressure was measured with a differential pressure transducer (Celesco) as the difference between airway opening pressure and the pressure inside the plethysmograph. […]

[2] = system: persistent pulmonary hypertension of the newborn (PPHN); assay type: in vivo, human; conditions: standard dosage, infused, during nitric oxide
Procedure: First subject. Through compassionate use, nitric oxide was administered to an infant suffering from persistent pulmonary hypertension and congenital heart disease. As a result of prolonged ventilation, absence of a preductal arterial blood sampling site, and the existence of the atrial-ventricular (AV) canal, the patient was not included in the PPHN study mentioned above.
The patient was a 3225 gm, full term person who had been treated with extracorporeal membrane oxygenation (ECMO) because of the severity of their congenital heart disease and profound hypoxemia. They had been taken off ECMO and was being maintained intubated and ventilated in the newborn intensive care unit. They subsequently became progressively hypoxemic, as reflected in their post-ductal pulse oximetry (POX) values. By the time they were taken to the catheterization laboratory to confirm the existence of the A-V canal and to determine if some emergent cardiac surgery was needed, they were receiving maximal medical and ventilatory life support and remained dangerously hypoxemic. Under these circumstances, we were granted consent to treat the patient with nitric oxide.
Upon arrival to the catheterization laboratory, the patient was extremely cyanotic. They were treated with fentanyl, oxygen, hyperventilation and intravenous fluid boluses to stabilize them prior to administering NO.
We utilized a regulator to step-down the pressure of the NO into a blender, which allowed us to adjust the relative amounts of the 800 ppm NO/N2 and 100% N2 supplies. Treating the patient with pure oxygen, we increased the flow of N2 through a flow regulator into the inspiratory circuit of the breathing cicuit until the FI O2 was 0.9. This provided a 1:10 dilution of the nitrogen gas. We then used the blender to adjust the relative amounts of N2 and […] to provide 0 to 80 ppm of NO.

[3] = system: methacholine bronchoconstriction; assay: NO and terbutaline aerosol during methacholine infusion; assay type: in vivo, Hartley strain guinea pigs; conditions: NO gas before or after inhaled terbutaline
Procedure: as §1, §2

[4] = occasion #1, PGI2 5ng/kg/min i.v.
[5] = occasion #2, PGI2 5ng/kg/min i.v.

With `CCCCC[C@H](O)/C=C/[C@@H]1[C@H]2C/C(=C/CCCC(=O)O)O[C@H]2C[C@H]1O` [PGI2, prostacyclin, reference compound] the “QVA /QT” value ([1]; PGI2, i.v.) was 57%, the “PAP and RVEF” value ([1]; inhaled NO and i.v. PGI2, text) was “lowered PAP and improved RVEF” and the MAP [1, 4] was 81 mm Hg. For the same compound, the PAP [1, 4] was 46 mm Hg, the PCWP [1, 4] was 12 mm Hg and the PaO2 [1, 4] was 74 torr. The “QA /QT” value [1, 4] was 57%, the “VD /VT” value [1, 4] was 51% and the “low VD /Q” value [1, 4] was 0%. For the same compound, the MAP [1, 5] was 86 mm Hg, the PAP [1, 5] was 42 mm Hg and the PCWP [1, 5] was 14 mm Hg. It also gave a PaO2 [1, 5] of 81 torr and an RVEF [1, 5] of 42%.
With `CC(=O)OC(C)C[N+](C)(C)C` (centres unmarked) [methacholine] the airway resistance (airway resistance) was “stably increasing levels of airway resistance for up to one hour”.
For `CCCCC[C@H](O)/C=C/[C@H]1[C@H](O)CC(=O)[C@@H]1CCCCCCC(=O)O` [prostaglandin E1, reference compound], the “effect of prostaglandin infusion on need for nitric oxide” value [2] was “nitric oxide could not be discontinued without the return of dangerously low oxygen saturations”.
In the case of `CC(C)(C)NCC(O)c1cc(O)cc(O)c1` (centres unmarked) [terbutaline, reference compound], the “bronchodilating effects of NO plus terbutaline” value [3] is reported as “additive”.
